Source: patent publication US20260034042A1, “Composition with Improved SPF and UVA Photoprotection” (Symrise AG, priority 2022, published 2026)

Tests used:
Format in all cases: physicochemical
[1] = Determination of the in-vitro SPF on PMMA plates (Labsphere UV-200S, Colipa method)
Method: (§1) Determination of the in-vitro SPFs and UVA-PF
(§2) The SPF boosting and UVA-PF boosting test is carried out as in-vitro determination of SPFs.
(§3) Principle: The formulation to be tested (emulsion, solution) is weighed on PMMA plates with the help of an analytical balance. The formulation if distributed and incorporated on the plate using a method corresponding to the formulation. The thus prepared plates are then measured on a Labsphere device and the results are calculated as SPF with a suitable software.
(§4) PMMA plates (Polymethylmethacrylate), measuring 3 cm×8.5 cm (WVVW5 plates based on […] “Determination of UVA photoprotection in vitro” with 5μ roughness by Schonberg GmbH & Co. AG) are used to perform an SPF measurement.
(§5) A reference sample is obtained by distributing 25 to 28 mg glycerin (99.5%) with the index finger on the roughened side of the PMMA plate. The glycerin film must be very thin and uniform. Subsequently, this plate is stored for at least 2 hours.
(§6) The reference plate is measured with the following transmission values:
(§7) The sample to be measured should be homogeneously mixed with a spatula before application. 1.2 mg/cm2 of sample is evenly distributed in several rows of dots on the PMMA plate. In order to minimise the evaporation of the sample during weighing, this process must be carried out quickly. The sample is then evenly distributed by hand with a finger previously saturated with the sample material. The distribution takes place in two phases: • Phase 1: Fast and uniform distribution with a slight pressure until the emulsion is broken. • Phase 2: The sample is massaged into the rough surface with strong pressure and the process should last 30 seconds. In this context under strong pressure means that when massaged on a scale, this indicates at least […].
(§8) Sun oils: The product quantity is generally 1.3 mg/cm^2. For strongly spreading oils, less product is applied, as the amount of oil cannot be “absorbed” from the plate. Then the amount of application should be reduced to 1.0-0.75 mg/cm^2. Application method here is also the 30 s fast/light and 30 s strong method. • Sun sprays: The “30/30 method” applies here (especially for thicker sprays). • For very liquid sprays (similar to water): • Fast and uniform distribution with a slight pressure, until the emulsion “breaks”. • The process should take 45 s.
(§9) The finished sample plates are stored dust-free and measured at the earliest after 15 minutes.
(§10) The samples are measured using the UV-200S device, using the specified Colipa method. The Labsphere user manual also applies.
(§11) A new “Study” is opened via File and then the “Colipa Guideline 2011” method is selected under the heading “Study”. In the new window “Colipa Method Options” the number of plates (3 plates), the measuring points per plate (5 measuring points) and the in vivo SPF and, if necessary, the irradiance intensity of the external irradiance device (Solar Simulator Irradiance) entered. • The irradiance set on the external device is 765 W/m2 as standard. The complete naming of the sample is done via Study”, “Study Information”.
At the beginning of the measurement, a blank value of the glycerin reference sample is measured (“scan blank plate”). In order to determine the SPF of a sample, a total of 15 measuring points (3 plates of 5 measuring points) are then created (“Scan Location”).
• After the first measurement run, the device calculates an irradiation dose (Irradiation Dose/J/cm2) and the duration (exposure time) for each plate. The plates are irradiated in the external irradiation device (irradiation duration=average value of the 3 plates).
The calculation of irradiation dose and exposure time is based on the irradiance (765 W/m^2) set on the external device. […]

[2] = Determination of the in-vitro UVA-PF on PMMA plates (Labsphere UV-200S, Colipa method, post irradiation)
Method: UVA-photoprotection is expressed in UVA-protection factor (UVA-PF). UVA-PF is similar to SPF in that it is a measure of how well a sunscreen protects the skin from UVA radiation. It is performed in a similar manner by irradiating the skin with UVA. This can be done in vivo with human skin or in vitro, where it is performed by applying the sunscreen to an PMMA plate (Polymethymethacrylate plate) and measuring how much UVA passes through the slide with or without the sunscreen. To characterize protection from UVA radiation, the PPD (Persistent Pigment Darkening) method, which measures the color of the skin observed 2 to 4 hours after exposure of the skin to UVA radiation, is used. The PPD method appears to correlate well with the in vitro UVA-PF testing.
as §1, §2, §3, §4, §5, §6, §7, §8, §9, §10, §11
(§12) At the beginning of the measurement, a blank value of the glycerin reference sample is measured (“scan blank plate”). […]

[3] = Critical wavelength of the sunscreen formulation (post irradiation)
Source text: The term “broad-spectrum photo-protection” means photo-protection from both UVA and UVB radiation. Broad-spectrum is based on the breadth of protection offered by a sunscreen in the UVA and UVB spectrums. In order for a sunscreen to be considered broad-spectrum, it must have achieved a critical wavelength of at least 370 nm, meaning that 10% of the protection that the sunscreen offers has to be for wavelengths above 370 nm. A critical wavelength>370 nm is a rigorous minimum that sunscreen products should achieve to be labelled as broad-spectrum”.
The term “critical wavelength” is defined as the wavelength at which the area under the UV protection curve (% protection versus wavelength) represents 90% of the total area under the curve in the UV region (280-400 nm). […]
In order to calculate the critical wavelength (λc), mathematical integration of the measured spectral absorbance from […] to 400 nm is performed to calculate the area beneath the absorbance curve. The critical wavelength value is based upon the inherent shape and breadth of the absorbance cure, not its amplitude. The critical wavelength is the wavelength below which 90% of the area under the absorbance curve sides. […]
The samples are measured using the UV-200S device, using the specified Colipa method. […]
as §12

[4] = 1.0% by weight added to sunscreen with modern organic UV-filter mixture (Example 1; control SPF 31.7)
[5] = 1.0% by weight, classic organic UV-filter combination (Example 3)
[6] = 1.0% by weight, classic organic UV-filter combination (Example 3; control SPF 33.7)
[7] = 1.0% by weight, modern organic UV-filter mixture (Example 1)
[8] = 3.0% by weight added to sunscreen with modern organic UV-filter mixture (Example 1; control SPF 31.7)
[9] = 3.0% by weight, classic organic UV-filter combination (Example 3)
[10] = 3.0% by weight, classic organic UV-filter combination (Example 3; control SPF 33.7)
[11] = 3.0% by weight, modern organic UV-filter mixture (Example 1)
[12] = 3.0%, modern organic UV-filter mixture (Example 1)

SMILES	in vitro SPF [1, 4]	in vitro SPF higher than reference sample without MAA [1, 5] [%]	in vitro SPF [1, 6]	in vitro SPF higher than reference sample without MAA [1, 7] [%]	in vitro SPF [1, 8]	in vitro SPF higher than reference sample without MAA [1, 9] [%]	in vitro SPF [1, 10]	in vitro SPF higher than reference sample without MAA [1, 11] [%]	improvement of the UVA-PF compared to the control sample [2, 12] [%]	improvement of the UVA-PF compared to the control sample ([2]; 1.0%, classic organic UV-filter combination (Example 3)) [%]	improvement of the UVA-PF compared to the control sample ([2]; 1.0%, modern organic UV-filter mixture (Example 1)) [%]	improvement of the UVA-PF compared to the control sample ([2]; 3.0%, classic organic UV-filter combination (Example 3)) [%]	critical wavelength ([3]; 1.0% and 3.0%, classic sunscreen composition (Example 3; without MAA 380 nm)) [nm]	critical wavelength ([3]; 3.0%, modern sunscreen composition (Example 1; without MAA 378 nm)) [nm]	in vitro SPF higher than control/reference sample without MAA ([1]; 1.0% by weight, modern organic UV-filter mixture of Example 2) [%]	in vitro SPF ([1]; 1.0% by weight, modern organic UV-filter mixture of Example 2 (control SPF 52.4))	improvement of the UVA-PF compared to the control sample ([2]; 1.0%, modern organic UV-filter mixture of Example 2) [%]
CCOC(=O)CNC1=C/C(=N/c2ccccc2)CC(C)(C)C1 [MAA-1, ethyl 2-[[5,5-dimethyl-3-phenylimino-cyclohexen-1-yl]amino]acetate]	53.4	5.0	35.4	68.5	86.1	61.4	54.4	171.6	9.35								
COc1ccc(/N=C2\CC(C)(C)CC3=C2SCC(C(=O)O)N3)cc1OC (centres unmarked) [MAA-13, 8-((3,4-dimethoyxphenyl)imino)-6,6-dimethyl-3,4,5,6,7,8-hexahydro-2-H-benzol[b][1,4]thiazine-3-carboxylic acid]	34.4	7.7	36.3	8.52	39.8	87.2	63.1	25.6	30.75	3.2	14.8	5.2	381	379			
CC1(C)CC(NCC(=O)O)=C/C(=N/c2ccccc2)C1 [MAA-20, 2-[(5,5-dimethyl-3-phenylimino-cyclohexen-1-yl)amino]acetic acid]															9	57.1	18.2
